{
  "source": "ChEMBL document CHEMBL1201862",
  "about": "“PubChem BioAssay data set” (2004)",
  "key": {"[1]": {"molecular_target": "T1, Eukaryotic translation initiation factor 2-alpha kinase 3 (Homo sapiens, UniProt Q9NZJ5)", "T1 sequence (Q9NZJ5 whole entry)": "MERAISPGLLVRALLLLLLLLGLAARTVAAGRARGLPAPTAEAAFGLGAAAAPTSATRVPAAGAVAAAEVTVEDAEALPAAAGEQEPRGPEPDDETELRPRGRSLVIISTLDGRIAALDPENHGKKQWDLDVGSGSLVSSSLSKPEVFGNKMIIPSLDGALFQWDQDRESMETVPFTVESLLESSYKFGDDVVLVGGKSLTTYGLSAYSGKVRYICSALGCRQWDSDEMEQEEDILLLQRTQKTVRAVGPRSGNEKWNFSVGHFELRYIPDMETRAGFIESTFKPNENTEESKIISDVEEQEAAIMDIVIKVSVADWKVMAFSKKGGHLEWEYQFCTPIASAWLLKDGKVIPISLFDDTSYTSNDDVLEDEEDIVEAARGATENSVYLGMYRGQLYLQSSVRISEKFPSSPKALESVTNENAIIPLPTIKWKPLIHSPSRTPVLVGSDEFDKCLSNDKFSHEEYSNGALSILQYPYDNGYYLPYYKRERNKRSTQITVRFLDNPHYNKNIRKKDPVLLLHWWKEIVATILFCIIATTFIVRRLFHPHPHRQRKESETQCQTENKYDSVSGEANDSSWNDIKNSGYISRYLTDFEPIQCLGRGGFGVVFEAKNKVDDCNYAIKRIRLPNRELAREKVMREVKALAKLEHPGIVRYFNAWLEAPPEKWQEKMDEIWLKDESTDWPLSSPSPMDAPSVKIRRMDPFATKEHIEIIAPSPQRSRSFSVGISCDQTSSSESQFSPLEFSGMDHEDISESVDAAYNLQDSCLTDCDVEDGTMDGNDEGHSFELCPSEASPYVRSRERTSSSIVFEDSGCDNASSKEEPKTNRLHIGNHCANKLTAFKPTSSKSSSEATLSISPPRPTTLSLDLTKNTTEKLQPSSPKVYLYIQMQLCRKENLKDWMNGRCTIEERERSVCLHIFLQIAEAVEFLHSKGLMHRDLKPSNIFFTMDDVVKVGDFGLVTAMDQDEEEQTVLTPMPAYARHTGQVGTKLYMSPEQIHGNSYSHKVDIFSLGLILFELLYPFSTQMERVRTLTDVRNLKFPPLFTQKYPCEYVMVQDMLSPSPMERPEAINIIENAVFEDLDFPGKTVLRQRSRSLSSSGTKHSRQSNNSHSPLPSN", "assay": "Dose response cell-based high-throughput screening assay to measure PERK inhibition. [Related pubchem assays: 1416 ]", "format": "functional"}, "[2]": {"molecular_target": "T1, Eukaryotic translation initiation factor 2-alpha kinase 3", "assay": "Counterscreen assay for PERK inhibitors: Dose response cell-based high throughput screening assay to measure inhibition of PERK at 6 hours. [Related pubchem assays: 1522, 1416 ]", "format": "functional"}, "Bcl-2-like protein 10": {"molecular_target": "Bcl-2-like protein 10 (Homo sapiens, UniProt Q9HD36)", "sequence (Q9HD36 whole entry)": "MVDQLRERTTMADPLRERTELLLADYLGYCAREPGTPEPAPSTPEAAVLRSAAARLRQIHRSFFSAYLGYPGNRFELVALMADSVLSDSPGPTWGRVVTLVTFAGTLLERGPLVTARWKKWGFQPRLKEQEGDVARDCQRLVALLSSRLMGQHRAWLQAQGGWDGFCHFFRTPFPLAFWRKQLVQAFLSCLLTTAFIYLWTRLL", "assay": "displacers of TR3 peptide from Bcl-B, primary screen, selectivity assay for Bfl-1 inhibitor project, biochemical, fluorescence polarization, FITC-TR3 peptide (AID 748);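 further: fluorescence polarization from a fluorescein-labelled TR3 peptide binding purified Bcl-B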"}, "[3]": {"molecular_target": "C-C chemokine receptor type 6 (Homo sapiens, UniProt P51684)", "sequence (P51684 whole entry)": "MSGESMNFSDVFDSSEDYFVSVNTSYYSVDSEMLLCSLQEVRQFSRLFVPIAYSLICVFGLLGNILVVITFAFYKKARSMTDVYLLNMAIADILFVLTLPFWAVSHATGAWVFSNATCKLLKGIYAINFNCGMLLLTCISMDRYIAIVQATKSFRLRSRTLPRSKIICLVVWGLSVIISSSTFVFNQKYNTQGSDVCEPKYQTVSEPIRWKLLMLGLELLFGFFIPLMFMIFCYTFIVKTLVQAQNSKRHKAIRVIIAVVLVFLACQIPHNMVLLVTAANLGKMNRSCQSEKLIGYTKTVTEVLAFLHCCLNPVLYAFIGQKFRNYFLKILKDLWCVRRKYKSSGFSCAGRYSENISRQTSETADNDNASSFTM", "assay": "CCR6 receptor antagonists, dose response, cell-based, luminescent beta-arrestin readout (AID 504728)", "format": "functional"}, "Beta-galactosidase": {"molecular_target": "Beta-galactosidase (Escherichia coli, UniProt Q8VNN2)", "sequence (Q8VNN2 whole entry)": "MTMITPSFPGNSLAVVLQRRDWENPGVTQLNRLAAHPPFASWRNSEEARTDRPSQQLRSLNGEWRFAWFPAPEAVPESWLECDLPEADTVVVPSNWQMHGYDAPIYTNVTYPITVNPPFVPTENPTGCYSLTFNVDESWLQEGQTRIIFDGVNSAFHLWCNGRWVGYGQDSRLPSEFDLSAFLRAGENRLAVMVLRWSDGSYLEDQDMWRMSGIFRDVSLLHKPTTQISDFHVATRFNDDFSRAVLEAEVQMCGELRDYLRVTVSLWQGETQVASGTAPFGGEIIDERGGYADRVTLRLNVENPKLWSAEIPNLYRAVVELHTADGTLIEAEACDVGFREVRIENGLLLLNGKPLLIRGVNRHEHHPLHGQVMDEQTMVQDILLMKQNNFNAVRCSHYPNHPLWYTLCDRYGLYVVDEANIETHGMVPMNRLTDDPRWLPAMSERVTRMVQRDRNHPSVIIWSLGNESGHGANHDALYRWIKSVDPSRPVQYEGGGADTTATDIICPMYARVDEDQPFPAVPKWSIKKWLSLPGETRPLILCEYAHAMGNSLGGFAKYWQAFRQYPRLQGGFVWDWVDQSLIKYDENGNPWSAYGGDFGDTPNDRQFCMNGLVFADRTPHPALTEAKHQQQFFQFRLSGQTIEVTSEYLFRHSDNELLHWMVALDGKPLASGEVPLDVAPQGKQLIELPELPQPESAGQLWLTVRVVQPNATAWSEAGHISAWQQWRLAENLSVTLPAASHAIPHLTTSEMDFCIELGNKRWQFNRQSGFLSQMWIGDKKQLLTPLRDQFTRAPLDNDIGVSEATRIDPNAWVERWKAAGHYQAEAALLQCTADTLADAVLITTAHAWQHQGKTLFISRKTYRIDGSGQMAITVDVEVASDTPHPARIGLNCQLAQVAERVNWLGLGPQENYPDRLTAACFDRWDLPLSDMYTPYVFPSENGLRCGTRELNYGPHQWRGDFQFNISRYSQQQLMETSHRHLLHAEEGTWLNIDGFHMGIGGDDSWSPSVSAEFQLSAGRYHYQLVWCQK", "assay": "beta-galactosidase enzyme inhibitors and activators, dose response, artefact control for CCR6 antagonist project, biochemical, E. coli enzyme, set 3 (AID 504712)", "format": "functional"}, "Nonstructural protein 1": {"molecular_target": "Nonstructural protein 1 (Influenza A virus, UniProt Q194T2)", "sequence (Q194T2 whole entry)": "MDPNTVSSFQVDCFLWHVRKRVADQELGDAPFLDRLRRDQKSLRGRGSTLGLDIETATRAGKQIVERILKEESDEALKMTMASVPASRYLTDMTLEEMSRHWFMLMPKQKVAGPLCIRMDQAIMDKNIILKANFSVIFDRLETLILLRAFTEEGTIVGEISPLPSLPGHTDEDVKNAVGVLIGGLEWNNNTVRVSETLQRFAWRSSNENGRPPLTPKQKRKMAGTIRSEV", "format": "functional, Influenza A virus (A/California/07/2009(H1N1))"}, "Vero [4]": {"test_system": "Vero", "assay": "Vero cell cytotoxicity, cytotoxicity control for flavivirus capping enzyme inhibitors (AID 588742)", "format": "functional", "details": "Chlorocebus sabaeus"}, "Genome polyprotein": {"molecular_target": "Genome polyprotein (dengue virus type 2, UniProt P29990)", "sequence (P29990 2492-3391 limits assumed)": "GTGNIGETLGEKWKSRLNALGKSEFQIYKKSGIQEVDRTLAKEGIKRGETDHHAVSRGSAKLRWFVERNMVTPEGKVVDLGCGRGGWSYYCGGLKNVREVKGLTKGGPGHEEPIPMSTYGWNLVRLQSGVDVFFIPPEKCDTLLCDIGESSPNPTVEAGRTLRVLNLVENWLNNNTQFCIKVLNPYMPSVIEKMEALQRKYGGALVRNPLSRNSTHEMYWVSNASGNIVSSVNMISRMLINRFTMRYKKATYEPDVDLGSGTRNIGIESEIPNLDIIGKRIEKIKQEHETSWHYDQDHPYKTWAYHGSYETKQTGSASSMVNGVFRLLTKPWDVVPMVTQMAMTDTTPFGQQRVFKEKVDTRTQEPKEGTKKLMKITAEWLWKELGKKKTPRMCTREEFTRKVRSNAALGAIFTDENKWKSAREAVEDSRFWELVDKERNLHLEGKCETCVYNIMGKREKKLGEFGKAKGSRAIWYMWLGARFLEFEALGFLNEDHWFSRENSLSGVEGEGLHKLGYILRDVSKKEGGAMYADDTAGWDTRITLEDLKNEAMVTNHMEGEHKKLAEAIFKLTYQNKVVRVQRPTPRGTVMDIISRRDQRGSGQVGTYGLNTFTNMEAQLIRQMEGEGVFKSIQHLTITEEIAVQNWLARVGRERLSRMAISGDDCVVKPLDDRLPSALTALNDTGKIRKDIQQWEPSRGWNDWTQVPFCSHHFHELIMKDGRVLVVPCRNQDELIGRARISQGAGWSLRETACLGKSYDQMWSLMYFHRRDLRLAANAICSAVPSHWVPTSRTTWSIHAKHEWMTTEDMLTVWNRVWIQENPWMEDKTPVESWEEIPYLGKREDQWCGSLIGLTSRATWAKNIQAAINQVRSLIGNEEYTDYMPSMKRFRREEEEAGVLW", "assay": "Dengue-2 NS5 methyltransferase inhibitors, primary screen, biochemical, confirmation dose response (AID 588689)", "format": "functional"}, "[5]": {"molecular_target": "T2, High affinity choline transporter 1 (Homo sapiens, UniProt Q9GZV3)", "T2 sequence (Q9GZV3 whole entry)": "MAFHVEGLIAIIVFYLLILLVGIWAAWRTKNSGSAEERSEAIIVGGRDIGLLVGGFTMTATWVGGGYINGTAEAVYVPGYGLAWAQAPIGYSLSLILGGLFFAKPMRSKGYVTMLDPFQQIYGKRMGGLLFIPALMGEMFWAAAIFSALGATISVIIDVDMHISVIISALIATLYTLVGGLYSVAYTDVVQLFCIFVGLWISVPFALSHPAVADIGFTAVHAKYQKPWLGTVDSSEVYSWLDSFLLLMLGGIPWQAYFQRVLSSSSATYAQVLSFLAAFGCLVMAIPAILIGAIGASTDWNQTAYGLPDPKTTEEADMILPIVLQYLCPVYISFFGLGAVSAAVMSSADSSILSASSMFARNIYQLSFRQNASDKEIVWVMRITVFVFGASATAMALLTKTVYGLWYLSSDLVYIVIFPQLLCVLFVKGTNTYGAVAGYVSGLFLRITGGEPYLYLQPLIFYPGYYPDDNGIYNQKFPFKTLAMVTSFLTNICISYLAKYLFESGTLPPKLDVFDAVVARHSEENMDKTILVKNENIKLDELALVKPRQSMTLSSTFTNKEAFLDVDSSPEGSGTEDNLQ", "assay": "CHT inhibitors, dose response, cell-based, 5-point CRC, membrane potential dye (AID 504840)", "format": "functional"}, "[6]": {"assay": "inhibitors of intracellular T. cruzi replication, confirmation, NIH3T3 host cells, beta-gal luminescence (AID 2044);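 further: luminescent beta-galactosidase reporter signal from transgenic T. cruzi replicating inside host cells; inhibitors lower the luminescence signal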", "format": "functional, cell-based"}, "[7]": {"assay": "cytotoxicity toward NIH3T3 fibroblasts, dose response, counter-screen, cell-based, ATP luminescence, mouse fibroblasts (AID 2010);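 further: cells exposed to compound for about 90 hours before reading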", "format": "functional"}, "[8]": {"assay": "HepG2 cell cytotoxicity, dose response, cytotoxicity control for non-replicating M. tuberculosis project (AID 489018)", "format": "functional", "details": "Mycobacterium tuberculosis"}, "[9]": {"assay": "Vero E6 cell cytotoxicity, dose response, cytotoxicity control for non-replicating M. tuberculosis project, secondary assay (AID 492998)", "format": "functional, VeroE6", "details": "Vero C1008"}, "[10]": {"assay": "THP-1 cell cytotoxicity, dose response, cytotoxicity control for non-replicating M. tuberculosis project (AID 489025)", "format": "functional"}, "cells": {"assay": "cells", "format": "functional"}, "[11]": {"molecular_target": "Melanin-concentrating hormone receptor 1 (Homo sapiens, UniProt Q99705)", "sequence (Q99705 whole entry)": "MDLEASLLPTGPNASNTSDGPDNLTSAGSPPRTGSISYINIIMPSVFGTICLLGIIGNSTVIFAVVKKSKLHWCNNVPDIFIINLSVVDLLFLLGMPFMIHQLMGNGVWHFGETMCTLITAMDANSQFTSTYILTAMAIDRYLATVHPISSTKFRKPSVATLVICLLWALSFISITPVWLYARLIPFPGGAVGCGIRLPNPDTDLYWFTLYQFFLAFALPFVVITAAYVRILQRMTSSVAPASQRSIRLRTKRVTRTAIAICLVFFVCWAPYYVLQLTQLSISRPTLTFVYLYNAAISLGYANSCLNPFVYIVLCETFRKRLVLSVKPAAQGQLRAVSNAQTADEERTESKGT", "assay": "Late-stage fluorescence-based counterscreen for antagonists of the G-protein coupled receptor 7 (GPR7): cell-based dose response assay to identify antagonists of the melanin-concentrating hormone receptor 1 (MCHR1). [Related pubchem assays (depositor defined):AID1861, AID1880, AID1952, AID2148, AID2251, AID2257, AID485339]", "format": "functional"}, "[12]": {"molecular_target": "Heat shock protein HSP 90-alpha (Homo sapiens, UniProt P07900)", "format": "functional, organism-based"}, "Vero [13]": {"test_system": "Vero", "assay": "cells", "format": "functional", "details": "Chlorocebus sabaeus"}},
  "note": "Activity calls are given as the source filed them.",
  "data": [
    {"smiles": "CCCCc1c(C)nc2c(OC)cccc2c1SCC(=O)O", "values": [
      {"measurement": "EC50", "setting": "[1]", "value": "> 55.7 µM (not active)"},
      {"measurement": "EC50", "setting": "[2]", "value": "> 55.7 µM (not active)"}
    ]},
    {"smiles": "COc1ccc(N2C(=O)c3cccc4cccc(c34)C2=O)nn1", "values": [
      {"measurement": "IC50", "setting": "Bcl-2-like protein 10", "value": "> 50 µM (inactive)"}
    ]},
    {"smiles": "Nc1c(S(=O)(=O)O)cc(NC(=O)c2ccccc2)c2c1C(=O)c1ccccc1C2=O", "values": [
      {"measurement": "IC50", "setting": "[3]", "value": "26.9 µM (inactive)"},
      {"measurement": "IC50", "setting": "Beta-galactosidase", "value": "> 66.6 µM (inactive)"},
      {"measurement": "IC50", "setting": "Nonstructural protein 1", "value": "13.3 µM (active)"},
      {"measurement": "CC50", "setting": "Vero [4]", "value": "> 40 µM (active)"},
      {"measurement": "IC50", "setting": "Genome polyprotein", "value": "34.3 µM (active)"}
    ]},
    {"smiles": "CN(C)CCCn1c(=O)n(CCc2ccccc2)c(=O)c2c3c(sc21)CCCCC3", "values": [
      {"measurement": "IC50", "setting": "[5]", "value": "12.6 µM (active)"},
      {"measurement": "EC50", "setting": "[6]", "value": "0.113 µM (active)"},
      {"measurement": "EC50", "setting": "[7]", "value": "36.1 µM (active)"},
      {"measurement": "CC50", "setting": "[8]", "value": "14.3 µM (active)"},
      {"measurement": "CC50", "setting": "[9]", "value": "12.5 µM (active)"},
      {"measurement": "CC50", "setting": "[10]", "value": "19.1 µM (active)"},
      {"measurement": "IC50", "setting": "cells", "value": "21.2 µM (active)"}
    ]},
    {"smiles": "COc1ccc(Oc2c(C=O)cnn(-c3ccc(C(C)C)cc3)c2=O)cc1", "values": [
      {"measurement": "IC50", "setting": "[11]", "value": "4.8 µM (active)"}
    ]},
    {"smiles": "COc1cccc(/C=C2/CCC(CN(C)C)C2=O)c1", "note": "(stereo not given)", "values": [
      {"measurement": "AC50", "setting": "[12]", "value": "4.55 µM (active)"},
      {"measurement": "IC50", "setting": "[3]", "value": "32.3 µM (inactive)"},
      {"measurement": "IC50", "setting": "Beta-galactosidase", "value": "> 66.6 µM (inactive)"},
      {"measurement": "CC50", "setting": "Vero [13]", "value": "22.4 µM (active)"}
    ]}
  ]
}
